Reference: paper PMC12298351, “Novel 3,19-(N-Phenyl-3-(4-fluorophenyl)-pyrazole) Acetal of Andrographolide Promotes Cell Cycle Arrest and Apoptosis in MDA-MB-231 Breast Cancer Cells” (Pharmaceuticals, 2025)

Tests used:
[1] = DPPH radical scavenging assay; conditions: 25 µM test compound, 0.1 mM DPPH, acetonitrile, 30 min
Description: A stable free radical DPPH (2,2-Diphenyl-1-picrylhydrazyl) assay was employed to test the antioxidant activity of all the synthesized compounds. Concisely, 25 µM of the test compounds were dissolved in acetonitrile and combined with 0.1 mM of DPPH (in acetonitrile) in a 1:2 ratio (80 µL and 160 µL). Then, the mixture was left undisturbed in the dark for 30 min at room temperature. After 30 min, the absorbance of the solutions was instantly measured at 517 nm using a Varioskan Multiplate Reader (Thermo Fisher Scientific, Mumbai, India). Ascorbic acid (in acetonitrile) was used as the positive control, and andrographolide and isoandrogapholide (in acetonitrile) were used as the standards. The following equation was used to determine the DPPH radical scavenging activity:% Radical scavenging activity = (Ac − As)/Ac × 100 where Ac = the absorbance of the blank (DPPH solution), and As = the absorbance of the test samples

[2] = test system: 60 human cancer cell lines; assay: NCI single-dose study; assay type: cell-based; conditions: single dose 10 µM, all 60 cell lines
Source text: All the synthesized compounds (1a–1j and 2a–2j) were initially assessed for their anticancer potential at the National Cancer Institute (NCI, USA) against a diverse panel of 60 human cancer cell lines, representing nine distinct cancer types including leukemia, non-small-cell lung, colon, CNS, melanoma, ovarian, renal, prostate, and breast. The testing protocol employed by the NCI encompasses two stages: initial assessment at a single dose and subsequent evaluation at five doses.
Initially, a comprehensive anticancer screening of all twenty compounds (1a–1j and 2a–2j), including the parent compounds ADG and ISOADG, was conducted using a 10 µM dose across all 60 cell lines (a standardized protocol followed for the initial assessment of test compounds by the NCI). […] As a result, these ten compounds were chosen for five-dose studies.

With `O=C1O[C@H]([C@@H](O)CO)C(O)=C1O` [ascorbic acid, reference compound] the “% DPPH radical scavenging activity” value [1] was 69.26%.

For `C=C1CC[C@@H]2[C@](C)(CO)[C@H](O)CC[C@@]2(C)[C@@H]1C/C=C1/C(=O)OC[C@H]1O` [ADG, andrographolide], the “% DPPH radical scavenging activity” value [1] was 58.74% and the “% growth inhibition” value [2] was “lower % growth inhibition”.

In the case of `CC12CC[C@@H]3[C@](C)(CO)[C@H](O)CC[C@@]3(C)[C@@H]1CC(C1=CCOC1=O)O2` (some centres unmarked) [ISOADG, isoandrographolide, reference compound], the “% DPPH radical scavenging activity” value [1] is reported as 57.94% and the “% growth inhibition” value [2] is reported as “lower % growth inhibition”.
